The results in this text go back to patent US8383617B2, “Treatment of protein aggregation diseases” (priority 2007, dated 2013).

“And” between values parts separate entries of the source, which are not always exact repeats. Equal values may be shown once.

Assay [1] deals with Synthetic beta-amyloid peptide 1-40 (Homo sapiens, UniProt P05067). Kind of assay: Seprion assay screen for compounds that affect amyloid aggregation. The format is biochemical. Conditions: test compounds at 1 mM; for Relative aggregation compared to 'no compound' aggregation control: peptide 2.8 μg/ml, 30 min at 37° C., Seprion assay signal.
Assay [2] concerns the target Synthetic beta-amyloid peptide (Homo sapiens, UniProt P05067). Kind of assay: PAGE and silver staining of aggregation reactions incubated with compounds. The assay is classed as biochemical. Conditions: peptide incubated in the presence of compound, FIG. 2.
The nature of assay [3]: Therapy of a patient with Gerstman-Straussler-Scheinker (GSS) syndrome. Conditions: intraventricular, before the combination therapy.
For assay [4], the target named is T1, beta-amyloid 1-40 (Homo sapiens, UniProt P05067).
T1 construct: These mice develop increased amounts of beta-amyloid 1-40 and 1-42 in the brain; from tissue; host or cells: brain extracts of hAPP(751) transgenic mice
Kind of assay: Seprion assay of brain extracts of treated hAPP(751) mice, beta-amyloid 1-40. The format is in vivo. To be noted: SDS extracts of brain; daily oral from 2 to 6 months of age; fluphenazine 0.5 mg/Kg, trimipramine 25 mg/Kg; one value per animal.

Assay [5] deals with T2, beta-amyloid 1-42 (Homo sapiens, UniProt P05067).
T2 construct: ELISA and Seprion assay for amyloid — 1-40 and 1-42 on the SDS extracts; from tissue; host or cells: brain extracts of hAPP(751) transgenic mice
Kind of assay: Seprion assay of brain extracts of treated hAPP(751) mice, beta-amyloid 1-42. The format is in vivo. To be noted: SDS extracts of brain; daily oral from 2 to 6 months of age; fluphenazine 0.5 mg/Kg, trimipramine 25 mg/Kg; one value per animal.

Assay [6] concerns the target T1, beta-amyloid 1-40. As to the kind of experiment: ELISA of brain extracts of treated hAPP(751) mice, beta-amyloid 1-40. The assay is classed as in vivo. To be noted: daily oral from 2 to 6 months of age, fluphenazine 0.5 mg/Kg, trimipramine 25 mg/Kg, one value per animal. (In general: ELISA stands for enzyme-linked immunosorbent assay.)
Assay [7] concerns the target T2, beta-amyloid 1-42. As to the kind of experiment: ELISA of brain extracts of treated hAPP(751) mice, beta-amyloid 1-42. The format is in vivo. To be noted: daily oral from 2 to 6 months of age, fluphenazine 0.5 mg/Kg, trimipramine 25 mg/Kg, one value per animal.
Assay [8] has as its system amyloid plaques. Kind of assay: Immunohistochemistry of brains of treated hAPP(751) mice for amyloid plaques. The assay is classed as in vivo. Conditions: immunohistochemistry of brain; daily oral from 2 to 6 months of age; fluphenazine 0.5 mg/Kg, trimipramine 25 mg/Kg.

T1 sequence (P05067 672-711): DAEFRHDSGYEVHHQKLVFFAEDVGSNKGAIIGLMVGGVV
Chain of Synthetic beta-amyloid peptide 1-40 (P05067 672-711): as above
T2 sequence (P05067 672-713): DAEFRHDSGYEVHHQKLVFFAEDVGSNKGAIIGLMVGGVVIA
Chain of Synthetic beta-amyloid peptide (P05067 672-711): as the sequence (P05067 672-711) above

`CN(C)CCCN1c2ccccc2Sc2ccccc21.Cl` [Promazine, promazine]: the “Relative aggregation compared to 'no compound' aggregation control” value in assay [1] was found to be 44.5%. For the same molecule, the “inhibition of amyloid aggregation by PAGE and silver staining” value in assay [2] is “inhibit the aggregation of the amyloid”.

Take pentosan polysulphate: the clinical effect result in assay [3] is “had no effect”.

With `OCCN1CCN(CCCN2c3ccccc3Sc3ccc(C(F)(F)F)cc32)CC1` [Fluphenazine, fluphenazine], the “Seprion assay beta-amyloid 1-40 OD420 nm” value in assay [4] is 0.18 OD420 nm and 0.09 OD420 nm. Moreover, in assay [5], the “Seprion assay beta-amyloid 1-42 OD420 nm” value was 0.93 OD420 nm and 0.68 OD420 nm. Besides, the “ELISA beta-amyloid 1-40 ng” value was 88 ng and 51 ng in assay [6] (SDS extracts of brain); 116 ng and 119 ng in assay [6] (formic acid extracts of brain). Moreover, the “ELISA beta-amyloid 1-42 ng” value in assay [7] (SDS extracts of brain) was 295 ng and 165 ng; in assay [7] (formic acid extracts of brain), 143 ng and 197 ng. In assay [8], this molecule displayed a plaque reduction of 23%.

In the case of `CCN(CC)CCCC(C)Nc1c2ccc(Cl)cc2nc2ccc(OC)cc12` (centres unmarked) [quinacrine], the “effect on amyloid aggregation (in words)” value in assay [1] (Seprion assay screen) is recorded as “not effective”.

For `CN1CCN(CC/C=C2/c3ccccc3Sc3ccc(S(=O)(=O)N(C)C)cc32)CC1` [Cis-thiothixene, cis-thiothixene], in assay [1], the “Relative aggregation compared to 'no compound' aggregation control” value is listed as 42%.

In the case of `c1ccc2c(c1)Nc1ccccc1S2` [Phenothiazine], the “Relative aggregation compared to 'no compound' aggregation control” value in assay [1] is given as 80%.

Take nortriptyline: in assay [1], the “Relative aggregation compared to 'no compound' aggregation control” value stood at 189%.

Consider `OCCN1CCN(CCC=C2c3ccccc3Sc3ccc(C(F)(F)F)cc32)CC1` [Flupenthixol, cis-(Z)-flupenthixol], for which, in assay [1], the “Relative aggregation compared to 'no compound' aggregation control” value amounted to 48.2%.

For `CC(CN(C)C)CN1c2ccccc2CCc2ccccc21` (centres unmarked) [Trimipramine, trimipramine], the “Relative aggregation compared to 'no compound' aggregation control” value in assay [1] is reported as 259%. For the same molecule, the “inhibition of amyloid aggregation by PAGE and silver staining” value in assay [2] is listed as “inhibit the aggregation of the amyloid”. The “Seprion assay beta-amyloid 1-40 OD420 nm” value in assay [4] was 0.11 OD420 nm and 0.58 OD420 nm and 0.14 OD420 nm and 0.10 OD420 nm. Besides, in assay [5], the “Seprion assay beta-amyloid 1-42 OD420 nm” value is 0.26 OD420 nm and 2.26 OD420 nm and 0.98 OD420 nm and 0.64 OD420 nm. Further, the “ELISA beta-amyloid 1-40 ng” value in assay [6] (SDS extracts of brain) was 169 ng and 101 ng and 195 ng and 89 ng; in assay [6] (formic acid extracts of brain) it was 127 ng and 111 ng and 182 ng and 115 ng. Further, the “ELISA beta-amyloid 1-42 ng” value in assay [7] (SDS extracts of brain) is 346 ng and 369 ng and 529 ng and 350 ng; in assay [7] (formic acid extracts of brain) it was 174 ng and 185 ng and 311 ng and 213 ng. The molecule also registered a plaque reduction in assay [8] of 15%.

As to protryptyline [Protriptyline], the “Relative aggregation compared to 'no compound' aggregation control” value in assay [1] came to 184%.

As to `Clc1ccc2c(c1)C(N1CCNCC1)=Nc1ccccc1O2` [Amoxapine, amoxapine], the “Relative aggregation compared to 'no compound' aggregation control” value in assay [1] was found to be 119%.
